Measured values published in ChEMBL document CHEMBL1201862, “PubChem BioAssay data set” (2004).
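Where inhibition never reached the appropriate level, the endpoint shown equals the highest concentration tested. Otherwise, values were interpolated linearly from a five-concentration, 48-hour dose response in 96-well plates. Abbreviation: GI50, concentration required for 50% inhibition of growth.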 Activity calls are given as the source filed them. Cut-off read from the data, not from the text of the source: active = GI50 up to about 1.1 µM and inactive = higher.

Key:
Experiment in all cases: growth of human tumour cells (NCI), 48 h
A549 = tested on: A549
CCRF-CEM = tested on: CCRF-CEM
HCT-116 = tested on: HCT-116
HCT-15 = tested on: HCT-15
HL-60 = tested on: HL-60
HT-29 = tested on: HT-29
LOX IMVI = tested on: LOX IMVI
MOLT-4 = tested on: MOLT-4
NCI-H226 = tested on: NCI-H226
NCI-H23 = tested on: NCI-H23
NCI-H460 = tested on: NCI-H460
OVCAR-8 = tested on: OVCAR-8
SF-268 = tested on: SF-268
SN12C = tested on: SN12C
SNB-19 = tested on: SNB-19
SNB-75 = tested on: SNB-75

Row | SMILES | GI50 (A549) | GI50 (CCRF-CEM) | GI50 (HCT-116) | GI50 (HCT-15) | GI50 (HL-60) | GI50 (HT-29) | GI50 (LOX IMVI) | GI50 (MOLT-4) | GI50 (NCI-H226) | GI50 (NCI-H23) | GI50 (NCI-H460) | GI50 (OVCAR-8) | GI50 (SF-268) | GI50 (SN12C) | GI50 (SNB-19) | GI50 (SNB-75)
1 | N#CCc1ccc(/C(C#N)=C2/OC(=N)C(c3ccc(CC#N)cc3)C2=O)cc1 (stereo unspecified) | > 100 µM (inactive) | > 100 µM (inactive) | > 100 µM (inactive) | > 100 µM | > 100 µM (inactive) | > 100 µM (inactive) | > 100 µM (inactive) | > 100 µM (inactive) | > 100 µM (inactive) | > 100 µM (inactive) | > 100 µM (inactive) | > 100 µM (inactive) | > 100 µM (inactive) | > 100 µM (inactive) | > 100 µM (inactive) | > 100 µM (inactive)
2 | CC(=O)Nc1ccc(-c2nnc(SCC(=O)Nc3ccccc3Cl)o2)cc1 | > 100 µM (inactive) | > 100 µM (inactive) | 44.1 µM (inactive) | > 100 µM | > 100 µM (inactive) | 80.4 µM (inactive) | > 100 µM (inactive) | > 100 µM (inactive) | > 100 µM (inactive) | > 100 µM (inactive) | > 100 µM (inactive) | > 100 µM (inactive) | > 100 µM (inactive) | > 100 µM (inactive) | > 100 µM (inactive) | > 100 µM (inactive)
3 | O=c1[c-](-c2ccccc2)[se]c(-c2ccccc2)[n+]1-c1ccccc1 | 16.3 µM (inactive) | 3.87 µM (inactive) | 3.51 µM (inactive) | 13.2 µM | 1.53 µM (inactive) | 23 µM (inactive) | 13.3 µM (inactive) | 18.8 µM (inactive) | 3.13 µM (inactive) | 11.8 µM (inactive) | 15.9 µM (inactive) | 3.8 µM (inactive) | 5.55 µM (inactive) | 5.05 µM (inactive) | 7.52 µM (inactive) | 8.15 µM (inactive)
4 | Cc1cccc2nc3cccc(C(=O)NCCN(C)C)c3nc12 | 0.383 µM (active) | 0.627 µM (active) | 0.293 µM (active) | 0.442 µM | 0.461 µM (active) | 0.507 µM (active) | 0.36 µM (active) | 0.26 µM (active) | 1.04 µM (active) | 0.541 µM (active) | 0.301 µM (active) | 0.673 µM (active) | 0.885 µM (active) | 0.339 µM (active) | 0.525 µM (active) | 1.08 µM (active)
5 | COC(=O)C1=C(c2ccc3c(c2)OCO3)O[C@H](c2ccc3c(c2)OCO3)[C@H]1COC(C)=O | 46.7 µM (inactive) | 78.9 µM (inactive) | 51.5 µM (inactive) | 53.1 µM | 21.8 µM (inactive) | 36.2 µM (inactive) | 48.4 µM (inactive) | 35.2 µM (inactive) | 39 µM (inactive) | 37.3 µM (inactive) | 63.5 µM (inactive) | 45.8 µM (inactive) | 87.5 µM (inactive) | 45.2 µM (inactive) | – | 49.5 µM (inactive)
6 | O=C(Nc1ccc(Cl)cc1Cl)OC(Cn1cncn1)c1ccc(Cl)cc1Cl (stereo unspecified) | 15.5 µM (inactive) | 38.9 µM (inactive) | 14.1 µM (inactive) | 16.6 µM | 44 µM (inactive) | 15.2 µM (inactive) | 16.3 µM (inactive) | 31.6 µM (inactive) | 19.7 µM (inactive) | 14.6 µM (inactive) | – | 17.3 µM (inactive) | 17.1 µM (inactive) | 16.9 µM (inactive) | 16.9 µM (inactive) | 16.1 µM (inactive)
7 | CSc1s[s+]c(SC)c1[O-] | > 100 µM (inactive) | 8.77 µM (inactive) | 17.1 µM (inactive) | 32.9 µM | 17.4 µM (inactive) | 24.7 µM (inactive) | – | 13.3 µM (inactive) | > 100 µM (inactive) | 20.5 µM (inactive) | 29.3 µM (inactive) | 20.1 µM (inactive) | 20.9 µM (inactive) | 22.1 µM (inactive) | > 100 µM (inactive) | 38.6 µM (inactive)
8 | NC1=NN(c2ccccc2)C(=O)C1/C(=N\NC(=O)c1cc2ccccc2cc1O)C(=O)Nc1ccc(Cl)c(Cl)c1 (stereo unspecified) | 42.8 µM (inactive) | 10.1 µM (inactive) | 35.2 µM (inactive) | 13.6 µM | 5.13 µM (inactive) | 59.2 µM (inactive) | 24.5 µM (inactive) | 22.9 µM (inactive) | 64.9 µM (inactive) | 28.9 µM (inactive) | 31.3 µM (inactive) | 17.3 µM (inactive) | 22.9 µM (inactive) | 35.6 µM (inactive) | 25.4 µM (inactive) | 31.2 µM (inactive)
9 | O=C1C=C(Nc2ccc(Br)cc2)c2ccccc2C1=O | 12.7 µM (inactive) | 11 µM (inactive) | 13.6 µM (inactive) | 5.26 µM | 4.51 µM (inactive) | 17.5 µM (inactive) | – | 10.9 µM (inactive) | 18.7 µM (inactive) | 3.33 µM (inactive) | 7.28 µM (inactive) | 12.5 µM (inactive) | 13.5 µM (inactive) | 15.2 µM (inactive) | 15.6 µM (inactive) | 11 µM (inactive)
10 | COC(=O)Cc1cc(OC)c(OC)cc1Br | > 100 µM (inactive) | > 100 µM (inactive) | > 100 µM (inactive) | – | > 100 µM (inactive) | > 100 µM (inactive) | – | > 100 µM (inactive) | > 100 µM (inactive) | > 100 µM (inactive) | > 100 µM (inactive) | > 100 µM (inactive) | > 100 µM (inactive) | > 100 µM (inactive) | > 100 µM (inactive) | 66.4 µM (inactive)
11 | C[N+](C)(C)CC(=O)N/N=C/c1oc(-c2cccc([N+](=O)[O-])c2)c(-c2cccc([N+](=O)[O-])c2)c1[N+](=O)[O-] | > 100 µM (inactive) | 35.2 µM (inactive) | 32.7 µM (inactive) | – | 42.3 µM (inactive) | > 100 µM (inactive) | – | > 10 µM (inactive) | – | > 100 µM (inactive) | > 100 µM (inactive) | 70.8 µM (inactive) | > 100 µM (inactive) | > 100 µM (inactive) | 85.9 µM (inactive) | –
12 | CCCCCCCCCc1cc(=O)c2c(O)cccc2o1 | 41.8 µM (inactive) | 30.8 µM (inactive) | 30.3 µM (inactive) | 41.3 µM | 25.2 µM (inactive) | > 10 µM (inactive) | 22.8 µM (inactive) | 20.4 µM (inactive) | 38.1 µM (inactive) | 65.5 µM (inactive) | 56.2 µM (inactive) | 38.7 µM (inactive) | 31.8 µM (inactive) | 87.3 µM (inactive) | 74.3 µM (inactive) | > 10 µM (inactive)
13 | CC(=O)c1c(P(=O)(OC(C)C)OC(C)C)nn(-c2ccc([N+](=O)[O-])cc2)c1C | > 100 µM (inactive) | > 100 µM (inactive) | > 100 µM (inactive) | > 100 µM | > 100 µM (inactive) | > 100 µM (inactive) | – | > 100 µM (inactive) | – | > 100 µM (inactive) | > 100 µM (inactive) | > 100 µM (inactive) | > 100 µM (inactive) | > 100 µM (inactive) | > 100 µM (inactive) | > 10 µM (inactive)
